Common to all, as to test: MIC, broth dilution method in microtitre
A general note: Broth dilution looks for growth in wells or tubes with falling amounts of substance.

Test [1] deals with erythromycin-resistant strains of Streptococcus pneumoniae. Format: cell-based. The protocol:
(§1) Using a standard broth dilution method in microtitre, compounds were tested for antibacterial activity. The compounds in the above examples gave minimum inhibitory concentrations (MICs) less than 1 microgram per millilitre against erythromycin-sensitive and erythromycin-resistant strains of Streptococcus pneumoniae and Streptococcus pyogenes.

For test [2], the system named is erythromycin-resistant strains of Streptococcus pyogenes. Format: cell-based. The protocol: as §1
Test [3] relates to S. pyogenes 3565. Format: cell-based. The note with it: Streptococcus pyogenes. The protocol:
as §1
(§2) In addiffon, the MIC (μg/mL) of test compounds against various organisms was determined including:
(§3) S. aureus Smith ATCC 13709, S. pneumonlae SP030, S. pyogenes 3565, E. faecalis ATCC 29212, H. influenzae ATCC 49247, M. catarrhalis ATCC 23246.

Test [4] concerns E. faecalis ATCC 29212. The format is cell-based. The following applies: Enterococcus faecalis, ATCC29212. The protocol:
as §1, §2, §3

The test system of test [5] is S. aureus Smith ATCC 13709. The format is cell-based. The note with it: Staphylococcus aureus, ATCC13709. The protocol:
as §1, §2, §3

For test [6], the system named is S. pneumoniae SP030. Format: cell-based. The following applies: Streptococcus pneumoniae. The protocol:
as §1, §2, §3

Test [7] has as its system H. influenzae ATCC 49247. Format: cell-based, Haemophilus influenzae. The protocol:
as §1, §2, §3

The subject of test [8] is M. catarrhalis ATCC 23246. Format: cell-based, Moraxella catarrhalis. The protocol:
as §1, §2, §3

Results on 3 compounds are retold here after patent US20070141276A1, “Novel 14 and 15 membered ring compounds” (priority 2003, published 2007).

Where a name gives a salt, the structure may show the parent alone.

For the compound `CC[C@H]1OC(=O)[C@H](C)[C@@H](O[C@H]2C[C@@](C)(OC)[C@@H](OC(=O)NCCCOCCOc3ccc4c(c3)c(=O)c(C(=O)O)cn4C3CC3)[C@H](C)O2)[C@H](C)[C@@H](O[C@@H]2O[C@H](C)C[C@H](N(C)C)[C@H]2O)[C@](C)(O)C[C@@H](C)CN(C)[C@H](C)[C@@H](O)[C@]1(C)O` [Example 2], the MIC was at most 0.25 µg/mL in test [1]; at most 0.25 µg/mL in test [2]; at most 1 µg/mL in test [3]; at most 1 µg/mL in test [4]; at most 1 µg/mL in test [5]; at most 1 µg/mL in test [6].

As to `CC[C@H]1OC(=O)[C@H](C)[C@@H](O[C@H]2C[C@@](C)(OC)[C@@H](OC(=O)NCCNCCOc3ccc4c(c3)c(=O)c(C(=O)O)cn4CC)[C@H](C)O2)[C@H](C)[C@@H](O[C@@H]2O[C@H](C)CC(N(C)C)[C@H]2O)[C@](C)(OC)C[C@@H](C)C(=O)[C@H](C)[C@@H](O)[C@]1(C)O` (stereo partly drawn) [Example 3, 4″-O-{2-[2-(3-Carboxy-1-ethyl-4-oxo-1,4-dihydro-quinolin-6-yloxy)-ethylamino]-ethylcarbamoyl}-6-O-methyl-erythromycin A monoformate salt], the MIC in test [3], in test [4], in test [5] and in test [6] was at most 1 µg/mL throughout.

On to “4″-O-3-[2-(3-Carboxy-7-chloro-1-cyclopropyl-4-oxo-1,4-dihydro-quinolin-6-yloxy)-ethoxy]-propylcarbamoyl}-azithromycin (A) and 4″-O-{3-[2-(3-Carboxy-1-cyclopropyl-4-oxo-1,4-dihydro-quinolin-6-yloxy)-ethoxy]-propylcarbamoyl)-azithromycin (B) [Example 1]”, for which the MIC in test [7] and in test [8] was at most 2 µg/mL in each case.
